Laboratory results reported in US20130225508A1, “PEPTIDE CAPABLE OF BINDING TO IMMUNOGLOBULIN” (priority 2010, published 2013).

Tests used:
[1] = system: monoclonal antibody cocktail-induced arthritis; experiment: Mice monoclonal antibody cocktail-induced arthritis model; assay type: in vivo, Mice (BALB/c Cr Slc)
Protocol: 1-1 Mice (BALB/c Cr Slc (SPF)) were used to examine arthritis suppressing effects of peptides of the present invention on monoclonal antibody cocktail-induced arthritis. Mice were fed normal chow and allowed to acclimate for 6 days before used in experiments.
Arthritis was caused by intravenous administration of 2 mg/animal of an arthritis-inducing monoclonal antibody cocktail and three days later, intraperitoneal administration of 50 μg/animal of lipopolysaccharide (LPS). Peptides R1 and R9 each were intraperitoneally administered at a dose of 10 mg/kg once a day from the day following the LPS administration (day 4) to day 14. Peptide SP4 and the variant of peptide SP4 composed of the corresponding D-amino acids (except for glycine) each were intraperitoneally administered at a dose of 10 or 100 mg/kg once a day from the day following the LPS administration (day 4) to day 14. […] A control group was given physiological saline at 10 mL/kg once a day from day 4.
To forty 7-week-old mice, the arthritis-inducing monoclonal antibody cocktail was intravenously administered at a dose of 2 mg/animal on day 0, and LPS was intraperitoneally administered at a dose of 50 μg/animal on day 3.
[…] As a control, physiological saline was intraperitoneally administered once a day from day 4, and the volume of administration was 10 ml/kg. […] Needles ([…]; Terumo) and syringes (1.0-ml capacity; Terumo) were used for administration.
Observation of clinical score was performed on even days from day 0 to day 14 as follows. The total score for the extremities was set to a maximum of 12. Visual observation of swelling of the legs was performed.
0: normal joint 1: slight inflammation and redness 2: serious erythema and swelling over the whole limb and preventing the use of the limb 3: deformation of the limb or joint accompanied by ankylosis, joint stiffness, loss of function
Results of examinations are expressed by mean value±standard error and were analyzed using EXSAS (Version 7.1.6, Arm Systex Co., Ltd.). Clinical scores were subjected to Wilcoxon's test. Quantitative data, such as body weights and leg volumes, were subjected to Bartlett's test, followed by Dunnett's multiple comparison test if the variance was uniform or by Steel's multiple comparison test if the variance was not uniform. The level of significance was set at 5% on both sides.

[2] = system: TNF-α in plasma; experiment: TNF-α in plasma of adjuvant arthritis rats (ELISA); assay type: in vivo, rat; settings: day 21 post-adjuvant
Protocol: (§1) TNF-α and IL-1β in plasma were measured in a double-point method using the TNF-α ELISA kit (Lbis® TNF-α-rat) and the IL-1β ELISA kit (Quantikine® Rat IL-1β/IL-1F2).
(§2) On day 21 post-adjuvant, the animals were subjected to autopsy, and plasma was prepared to measure IL-1β and TIN-α concentrations in plasma. In all the groups for which measurements were made, the concentration of TNF-α was below the detection limit (8 pg/mL).

[3] = system: IL-1β in plasma; experiment: IL-1β in plasma of adjuvant arthritis rats (ELISA); assay type: in vivo, rat; settings: day 21 post-adjuvant
Protocol: as §1, §2

[4] = day 6, 0.15 mg/kg intraperitoneal once a day from day 4
[5] = day 14, 0.15 mg/kg intraperitoneal once a day from day 4
[6] = 0.15 mg/kg oral, pre-administered group

SMILES: CN(Cc1cnc2nc(N)nc(N)c2n1)c1ccc(C(=O)N[C@@H](CCC(=O)O)C(=O)O)cc1 [Methotrexate]
- hind-limb volume ([1]; day 0, 0.15 mg/kg intraperitoneal group): 0.216 cm^3
- hind-limb volume [1, 4]: 0.381 cm^3
- increasing rate of hind-limb volume (volume on day 0 = 100%) [1, 4]: 176.2%
- hind-limb volume ([1]; day 8 (highest value), 0.15 mg/kg intraperitoneal once a day from day 4): 0.441 cm^3
- increasing rate of hind-limb volume (volume on day 0 = 100%) ([1]; day 8 (highest), 0.15 mg/kg intraperitoneal once a day from day 4): 204.2%
- clinical score ([1]; day 12, 0.15 mg/kg intraperitoneal once a day from day 4): 8.2±0.9
- clinical score [1, 5]: 8.6±0.9
- hind-limb volume [1, 5]: 0.356 cm^3
- increasing rate of hind-limb volume (volume on day 0 = 100%) [1, 5]: 165.4%
- Concentrations of TNF-α in plasma ([2]; 0.15 mg/kg oral from day 10): N.D (N.D.: below detection limit)
- Concentrations of TNF-α in plasma [2, 6]: N.D (N.D.: below detection limit)
- Concentrations of IL-1β in plasma ([3]; 0.15 mg/kg oral from day 10): 22.6 ± 11.3 pg/mL
- Concentrations of IL-1β in plasma [3, 6]: 18.4 ± 4.2 pg/mL
